Assay [1] concerns the target Cannabinoid receptor 1 (Homo sapiens, UniProt P21554). In words: Displacement of [3H]CP55940 from human cannabinoid CB1 receptor expressed in HEK293 EBNA cells after 90 mins by liquid scintillation counting. It counts as cell-based.
In assay [2] the target is Cannabinoid receptor 2 (Homo sapiens, UniProt P34972). The experiment in a line: Displacement of [3H]CP55940 from human cannabinoid CB2 receptor expressed in HEK293 EBNA cells after 90 mins by liquid scintillation counting. It counts as cell-based. A general note: Displacement assays read how much labelled ligand stays bound in the presence of the test substance.
The test system of assay [3] is LNCaP. The experiment in a line: Cell cycle arrest in human LNCAP cells assessed as accumulation at sub-G0 phase at IC50 after 24 hrs by flow cytometry analysis (reference value: 0.18%). It counts as functional. (Flow cytometry measures light scatter and fluorescence of single cells or particles in a stream.)
The test system of assay [4] is PC-3. The experiment in a line: Cell cycle arrest in human PC3 cells assessed as accumulation at S phase at IC50 after 24 hrs by flow cytometry analysis (reference value: 6.97%). Format: functional.
Assay [5] concerns LNCaP. In words: Antiproliferative activity against human LNCAP cells after 48 hrs by MTT assay in presence of CB2 antagonist SR144528. It counts as functional, cell-based. On the technique in general: Tetrazolium assays rely on reduction of a dye to a coloured formazan, in cell work by metabolically active cells.
The subject of assay [6] is LNCaP. In words: Induction of apoptosis in human LNCAP cells assessed as viable cells at IC50 after 24 hrs using annexin V-FITC/PI staining by flow cytometric analysis (reference value: 12.33%). It counts as functional.
Assay [7] has as its system PC-3. In words: Induction of apoptosis in human PC3 cells assessed as early apoptotic cells at IC50 after 24 hrs using annexin V-FITC/PI staining by flow cytometric analysis (reference value: 1.51%). It counts as functional.
Assay [8] concerns LNCaP. In words: Induction of apoptosis in human LNCAP cells assessed as late apoptotic cells at IC50 after 24 hrs using annexin V-FITC/PI staining by flow cytometric analysis (reference value: 2.96%). It counts as functional.
The test system of assay [9] is LNCaP. In words: Induction of apoptosis in human LNCAP cells assessed as early apoptotic cells at IC50 after 24 hrs using annexin V-FITC/PI staining by flow cytometric analysis (reference value: 1.24%). Format: functional.
Assay [10] deals with PC-3. The experiment in a line: Induction of apoptosis in human PC3 cells assessed as viable cells at IC50 after 24 hrs using annexin V-FITC/PI staining by flow cytometric analysis (reference value: 9.96%). Format: functional.
For assay [11], the system named is LNCaP. The experiment in a line: Cell cycle arrest in human LNCAP cells assessed as accumulation at G1/G0 phase at IC50 after 24 hrs by flow cytometry analysis (reference value: 91.30%). It counts as functional.
Assay [12] has as its system PC-3. In words: Cell cycle arrest in human PC3 cells assessed as accumulation at sub-G0 phase at IC50 after 24 hrs by flow cytometry analysis (reference value: 0.12%). It counts as functional.
Assay [13] concerns HepG2. The experiment in a line: Antiproliferative activity against human HepG2 cells after 48 hrs by MTT assay. Format: functional, cell-based. As to conditions: HepG2, 48 h.
Assay [14] has as its system PC-3. In words: Antiproliferative activity against human PC3 cells after 48 hrs by MTT assay. Format: functional, cell-based. As to conditions: PC-3, 48 h.
The test system of assay [15] is PC-3. In words: Cell cycle arrest in human PC3 cells assessed as accumulation at G2 phase at IC50 after 24 hrs by flow cytometry analysis (reference value: 22.90%). Format: functional.
The subject of assay [16] is PC-3. The experiment in a line: Cell cycle arrest in human PC3 cells assessed as accumulation at G1/G0 phase at IC50 after 24 hrs by flow cytometry analysis (reference value: 70%). It counts as functional.
For assay [17], the system named is LNCaP. The experiment in a line: Antiproliferative activity against human LNCAP cells after 48 hrs by MTT assay. Format: functional, cell-based.
Assay [18] concerns LNCaP. In words: Cell cycle arrest in human LNCAP cells assessed as accumulation at G2 phase at IC50 after 24 hrs by flow cytometry analysis (reference value: 5.62%). It counts as functional.
Assay [19] deals with LNCaP. In words: Antiproliferative activity against human LNCAP cells after 48 hrs by MTT assay in presence of antioxidant N-acetylcysteine. Format: functional, cell-based.
Assay [20] concerns PC-3. The experiment in a line: Antitumor activity against human PC3 cells xenografted in BALB/c OlaHsd-Foxn1nu mouse assessed as tumor growth inhibition at 2 mg/kg, ip qd for 15 days. As to conditions: PC-3, ip, 360 h, route intraperitoneal, read-out: TGI. It counts as functional.
Assay [21] relates to LNCaP. The experiment in a line: Cell cycle arrest in human LNCAP cells assessed as accumulation at S phase at IC50 after 24 hrs by flow cytometry analysis (reference value: 3.90%). It counts as functional.
The test system of assay [22] is PC-3. The experiment in a line: Induction of apoptosis in human PC3 cells assessed as late apoptotic cells at IC50 after 24 hrs using annexin V-FITC/PI staining by flow cytometric analysis (reference value: 4.45%). Format: functional.
Assay [23] deals with LNCaP. In words: Antitumor activity against human LNCAP cells xenografted in BALB/c OlaHsd-Foxn1nu mouse assessed as tumor growth inhibition at 2 mg/kg, ip qd for 15 days. Format: functional, organism-based. Set-up: dose 2 mg/kg.
For assay [24], the system named is LNCaP. In words: Antiproliferative activity against human LNCAP cells after 48 hrs by MTT assay in presence of CB1 antagonist SR141716. Format: functional, cell-based.
In assay [25] the test system is LNCaP. In words: Antiproliferative activity against human LNCAP cells after 48 hrs by MTT assay in presence of PPARgamma antagonist GW9662. It counts as functional, cell-based.

The source made the active and inactive calls. No cut-off for these calls is given here.

Chain of Cannabinoid receptor 1 (P21554 whole entry): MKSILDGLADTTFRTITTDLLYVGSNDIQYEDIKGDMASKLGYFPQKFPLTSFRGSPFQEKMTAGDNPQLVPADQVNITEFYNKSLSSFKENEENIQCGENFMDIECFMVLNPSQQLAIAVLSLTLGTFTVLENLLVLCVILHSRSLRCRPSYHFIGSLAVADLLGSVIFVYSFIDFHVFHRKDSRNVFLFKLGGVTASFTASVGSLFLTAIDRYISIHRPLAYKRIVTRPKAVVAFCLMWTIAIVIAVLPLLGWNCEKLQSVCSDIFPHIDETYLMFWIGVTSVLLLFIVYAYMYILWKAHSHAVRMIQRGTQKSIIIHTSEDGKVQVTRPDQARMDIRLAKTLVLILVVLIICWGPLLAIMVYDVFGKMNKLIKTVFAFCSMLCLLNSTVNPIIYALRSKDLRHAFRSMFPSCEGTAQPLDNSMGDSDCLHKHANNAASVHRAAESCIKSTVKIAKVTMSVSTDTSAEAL
Chain of Cannabinoid receptor 2 (P34972 whole entry): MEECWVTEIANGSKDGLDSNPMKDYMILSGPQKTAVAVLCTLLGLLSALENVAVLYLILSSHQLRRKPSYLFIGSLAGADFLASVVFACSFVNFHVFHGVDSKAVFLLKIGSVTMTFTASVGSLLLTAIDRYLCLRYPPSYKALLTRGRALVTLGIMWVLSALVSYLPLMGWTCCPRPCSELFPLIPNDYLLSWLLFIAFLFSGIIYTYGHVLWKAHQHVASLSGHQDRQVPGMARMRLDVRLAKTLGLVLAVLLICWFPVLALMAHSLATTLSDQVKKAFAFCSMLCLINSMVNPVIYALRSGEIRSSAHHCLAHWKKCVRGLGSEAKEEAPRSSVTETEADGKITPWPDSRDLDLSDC

`CCCCCCC(C)(C)C1=CC(=O)C2=C(OC(C)(C)c3cn(CC)nc32)C1=O`: the Ki – broadly, a dissociation constant, usually derived from enzyme kinetics or from competition with a known ligand – in assay [1] was found to be 8.52 µM; in assay [2], 3660 nM.
For `CCCCCCC(C)(C)C1=CC(=O)C2=C(OC(C)(C)c3c[nH]nc32)C1=O`, the Activity in assay [3] was determined as 8.9%; in [4], 10.09%; in assay [6], 12.52%; in assay [7], 3.98%; in [8] it was 9.59%; in assay [9] it was 5.86%. The Activity stood at 5.97% in assay [10]; 74.68% in [11]; 2.3% in [12]; 30.24% in [15]; 58.68% in assay [16]; 9.24% in assay [18]. In addition, the figures for the Activity in [21] and in assay [22] were 7.09% and 6.91%, respectively. Moreover, the outcome in assay [5] was Active. Further, the IC50 (as a rule, the concentration needed to halve the response being measured) worked out at 30 µM in assay [13], 15 µM in [14] and 15 µM in [17]. Also, the Ki in assay [1] came to 0.324 µM; in assay [2], 134 nM. Besides, the outcome in assay [19], in assay [24] and in assay [25] was inactive. Moreover, the inhibition in vivo at 2 mg/kg in assay [20] came to 40%. In assay [23], the TGI result was “Active”.
`CCCCCCC(C)(C)C1=CC(=O)C2=C(OC(C)(C)c3cn(C)nc32)C1=O`: the Ki in assay [1] turned out to be 14.2 µM; in [2], 672 nM.

The record behind these values is ChEMBL document CHEMBL3085703, “Synthetic cannabinoid quinones: preparation, in vitro antiproliferative effects and in vivo prostate antitumor activity” (Eur J Med Chem, 2013).
